Where “and” joins values, the source holds several entries; their conditions need not be identical. Equal values may be shown once. Calls of active or inactive are those of the source.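 The calls were made as follows: active = compounds giving half or more protection of infected cells from virus-caused growth loss, again on retest; inactive = the rest.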 Where a SMILES comes first, the peptide text is derived from it. Bridges are numbered along the chain shown (N, C = ends). Roman numbers before positions name the chains, in order.
Test system: CEM cells HIV-1 protection, formazan growth assay
Assay: NCI AIDS Antiviral Assay
Settings: for IC50: measured here: growth of uninfected CEM cells
In short: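 Screen of anti-HIV-1 activity in human CEM cells using a formazan-based growth measurement at five drug concentrations. Hits with 50% or greater protection were repeated, and confirmation required reproducible complete protection.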

Compound | EC50 [µM] | IC50 | outcome
CC1(O)CC(C(F)(F)F)(C(F)(F)F)OC1=O (stereo not drawn) | > 200 | > 200 µM | 
CCN(CC)CCCC(C)Nc1c(Sc2cnc3cc(Cl)ccc3c2NC(C)CCCN(CC)CC)cnc2cc(Cl)ccc12 (stereo not drawn) | > 309 | 1.7 µM | 
COc1ccc(N2C(=O)C(=O)C3(CCCCC3)C2=O)c2ccccc12 | > 200 | > 200 µM | 
Cc1cc(C)c2c(c1)C(=O)C1(C2)Cc2c(ccc(C)c2C)C1=O (stereo not drawn) | > 100 | > 100 µM | 
CC1(C)CC(=O)C2=C(C1)NC(SCC(=O)O)=C(C#N)C2c1ccc(Br)cc1 (stereo not drawn) | > 200 | 178 µM | 
CCOC1C(Br)Cn2c(=O)c3cc4ccccc4cc3c(=O)n2C1C (stereo not drawn) | > 17.8 | > 17.8 µM | 
CCCCCCCCCCCC(=O)NCc1ccc(OC(=O)CCCCCCCCCCC)c(OC)c1 | > 200 | 40.7 µM | 
O=C(Cc1ccccc1)NN1C(=O)/C(=C\c2ccc([N+](=O)[O-])cc2)SC1=Nc1ccccc1 | > 56.2 | > 56.2 µM | 
CNC(=O)Nc1ccc(Cl)cn1 | > 200 | > 200 µM | 
N#C/C(=C\c1cc(O)c(O)c(O)c1)C(=O)NCCCNC(=O)/C(C#N)=C/c1cc(O)c(O)c(O)c1 | > 132 | 21.4 µM | 
CCCCC(C#N)C(=O)NC(N)=O (stereo not drawn) | > 39.8 | > 39.8 µM | 
CCOC(=O)N1CCN(c2ccc3ccc(N)nc3n2)CC1 | > 200 | 148 µM | 
O=C(CCc1nc(=S)[nH][nH]1)Nc1ccccc1Cl | > 457 | > 457 µM | 
CC(=O)O[C@H]1CCN2C(=O)C=CC(OCc3ccccc3)C12 (stereo partly drawn) | > 832 | 794 µM | 
O=C1NC2CC=CCC12 (stereo not drawn) | > 2040 | > 2040 µM | 
Cc1c(Cl)cccc1NC(=O)C(=O)c1c(O)c2ccc(O)cc2oc1=O | > 95.5 | > 95.5 µM | 
O[C@H]1[C@H]2c3cc4c(cc3CN3CCC(=C[C@@H]1O)[C@H]23)OCO4 | > 2 | 0.372 µM | 
CC(C)CC(NC(=O)C(N)CSSCC(N)C(=O)NC(CC(C)C)C(=O)O)C(=O)O (stereo not drawn) (I: H-Cys-Leu-OH / II: H-Cys-Leu-OH; disulfide I:1-II:1; configuration not given here) |  |  | inactive
CCSC(SCC)=C1C(=O)N(c2ccccc2)N=C1C | > 44.7 | > 44.7 µM | 
COC(=O)C(=O)C(C#N)c1cccc2ccccc12 (stereo not drawn) |  |  | inactive
COc1cc(C2SCC(=O)N2c2ccc(Oc3ccc(Cl)cc3)c(Cl)c2)cc(OC)c1OC (stereo not drawn) | > 200 | 20 µM | 
O=c1ccn(/C=C\c2nc3ccccc3[nH]c2=O)c(=S)[nH]1 | > 200 | > 200 µM | 

Compound | EC50 [µM] | IC50 | outcome
O=C1NN=C2CCCCCC12 (stereo not drawn) | > 589 | > 589 µM | 
Cc1c(Cl)ccc2c(=O)c3cccc(CC(=O)O)c3oc12 | > 200 | 79.4 µM | 
CCCCCN(CCCCC)CCC(=O)c1ccc2cc(Br)c3ccccc3c2c1 | > 200 | 12.6 µM | 
O=C(/C=C/c1ccccc1)Oc1ccc(C(=O)/C=C/c2ccc(Cl)cc2)cc1 | > 100 | 44.7 µM | 
O=C(Nc1ccccn1)Nc1ccccn1 | > 200 | 107 µM | 
CC(=O)OCC12CCC3C4(C)CCCC(C)(C)C4CCC3(C)C1CC(C1=CC(=O)OC1O)O2 (stereo not drawn) | > 200 | 1.05 µM | 
COc1nc(NC2OCC(OC(C)=O)C(OC(C)=O)C2OC(C)=O)c(C(=O)CCl)c(=O)n1C (stereo not drawn) |  |  | inactive
CN1C(=O)C2(Cc3cn(C45CC67SSC(CO)(C(=O)N6C4Nc4ccccc45)N(C)C7=O)c4ccccc34)SSC1(CO)C(=O)N2C (stereo not drawn) | > 0.2 | 0.00661 µM | 
CN1C2CCC1CC(OC(=O)C(CO)c1ccccc1)C2 (stereo not drawn) | > 200 | > 200 µM | 
O=C1NC(=O)C(Cc2ccccc2Cl)N1 (stereo not drawn) | > 200 | > 200 µM | 
CN(C)CC1CCCC/C1=N/OC(=O)c1ccc(Cl)c(Cl)c1 (stereo not drawn) |  |  | inactive
O=C(CC(=O)Nc1ccccc1)Nc1ccccc1 | > 102 | > 102 µM | 
O=Nn1cc(-c2cc3ccccc3n2N=O)c2ccccc21 | > 200 | 97.7 µM | 
CC12CCC(O)CC1=CCC1C2CCC2(C)C1CC1=CC(C#N)C(=O)NC12O (stereo not drawn) | > 49 | 28.8 µM | 
COc1cc(OCc2ccccc2)c(O)cc1-c1coc2cc(OCc3ccccc3)ccc2c1=O | > 200 | 4.27 µM | 
N#C/C(=C/n1c(=S)[nH]c2ccc([N+](=O)[O-])cc21)c1ccc([N+](=O)[O-])cc1 | > 200 | 117 µM | 
CC(NC(=O)Cc1ccccc1)NC(=O)C(C)C(=O)NCc1ccccc1 (stereo not drawn) |  |  | inactive
Cc1ccc(S(=O)(=O)NCCCSCCSCCCN)cc1 | > 257 | 41.7 µM | 
COC(=O)c1cc2cc(O)c(O)cc2cn1 | > 200 | > 8.32 µM and 12 µM | 
CC(O)C(=O)[O][Pb]([CH3])([CH3])[CH3] (stereo not drawn) | > 200 | > 200 µM | 
O=C(O)c1c2c(nc3ccccc13)CCCC2 | > 398 | > 398 µM | 
CCOC(=O)c1[nH]c2c(OCC)nc(OCC)nc2c1Br | > 200 | > 200 µM | 

Compound | EC50 [µM] | IC50 | outcome
CCCCCC(=O)Nc1nc[nH]c1C(N)=O | > 200 | > 200 µM | 
CCOC(=O)CC1C(C(=O)OCC)=Cn2c([nH]c3cccc4cccc2c43)=C1C(=O)OCC (stereo not drawn) | > 200 | 30.9 µM | 
COC(=O)C(CCCCNC(=O)CNC(=O)OCc1ccccc1)NC(=O)C(CCCCNC(=O)CNC(=O)OCc1ccccc1)NC(=O)OCc1ccccc1 (stereo not drawn) | > 100 | 66.1 µM | 
O=C(O)CCNc1ccc2c(c1)B(O)OC2 | > 692 | > 692 µM | 
CCOC(=O)[C@H](Cc1ccccc1)NC(=O)c1nc[nH]c1[N+](=O)[O-] | > 537 | 372 µM | 
CC(C)=NOC(=O)Nc1cccc2c1OCO2 | > 200 | > 200 µM | 
COc1ccc(/C=C2\C(=O)NC(=O)c3ccccc32)cc1OC | > 60.3 | 31.6 µM | 
O=[N+]([O-])c1ccc(-c2cc(O)c3nc4ccccc4n3c2)cc1 | 178 | > 200 µM | 
COc1c(Cl)cc(C(=O)c2cc(Cl)c(OC)c(C(=O)O)c2)cc1C(=O)O | > 912 | > 912 µM | 
O=C1C=C2CC3c4[nH]c5ccccc5c4CCN3CC2CC1 (stereo not drawn) | > 85.1 | 43.7 µM | 
C=CCC(C(=O)Nc1cccc2[nH]cnc12)C(=O)OCC (stereo not drawn) | > 200 | 195 µM | 
COc1c(C)c2nc3ccccc3[nH]c2c2c(=O)ccnc12 | > 100 | > 100 µM | 
[O-][n+]1c(CCl)nc2ccccc2c1-c1ccccc1F | > 34.7 | > 34.7 µM | 
O=C1C2CC3OC3CC2C(=O)N1CCCCCCN1C(=O)C2CC3OC3CC2C1=O (stereo not drawn) | > 200 | > 200 µM | 
CCOC(=O)Cc1cc(=O)n(C)c2ccccc12 | > 200 | > 200 µM | 
Cc1nc2sccn2c1C(=O)NC(=O)Nc1ccc(Cl)cc1 | > 20.4 | > 20.4 µM | 
NCCNCCN1C(=O)c2cccc3cccc(c23)C1=O | > 200 | 7.59 µM | 
CCOC(=O)CNC(=O)C(Cc1ccccc1)NC(=O)C(N)CC(=O)O (stereo not drawn) (H-Asp-Phe-Gly-OEt; configuration not given here) | > 200 | > 200 µM | 
CC1OC(OC2C(OC(=O)[C@]34CCC(C)(C)CC3C3=CCC5[C@@]6(C)C[C@H](O)[C@H](OC7OC(COC8OC(CO)C(O)C(O)C8O)C(O)C(O)C7O)[C@@](C)(C(=O)O)C6CC[C@@]5(C)C3(C)CC4)OCC(O)C2O)C(O)C(O)C1OC1OCC(O)C(O)C1O (stereo partly drawn) | > 110 | > 110 µM | 
CCCC(C)C[C@@H](C)CC(C)/C=C(\C)c1oc(=O)c(C)c(O)c1C (stereo partly drawn) (tested in a mixture with another compound) |  |  | inactive
Cc1ccc(S(=O)Cc2ccc(C(=O)O)cc2[N+](=O)[O-])cc1 (stereo not drawn) |  |  | inactive
c1ccc([P+](c2ccccc2)(c2ccccc2)C2c3ccccc3-c3ccccc32)cc1 | > 200 | 10.7 µM | 

Compound | EC50 [µM] | IC50 | outcome
Cc1c(C#N)c2nnn(-c3ccccc3)c(=O)n2c1-c1ccccc1 | > 200 | 1.02 µM | 
Cc1ccc(NC(=O)CC/C(CC(=O)C(C)(C)C)=N\NC(=O)C[n+]2ccccc2)cc1C | > 75.9 | > 75.9 µM | 
O=c1cc[nH]cc1-c1c[nH]ccc1=O |  |  | inactive
NNc1cnn(-c2ccccc2)c(=O)c1Cl | > 57.5 | 4.57 µM | 
COc1ccc(C23OCN(c4ccccc4)C2(c2ccc(OC)cc2)c2ccccc2N3C)cc1 (stereo not drawn) | > 200 | > 200 µM | 
CCOP(=O)(CCCC(O)CNc1nc(N)nc(Cl)c1N=Nc1ccc(Cl)cc1)OCC (stereo not drawn) | > 200 | 5.75 µM | 
CCc1cc(C(N)=S)ccn1 | > 200 | > 200 µM | 
CC(=O)Oc1c2occc2cc2ccc(=O)oc12 | > 72.4 | > 72.4 µM | 
Cn1nnn2c(-c3ccccc3)nnc12 | > 891 | > 891 µM | 
COc1ccc(Cc2c(=O)[nH]nc3ccccc23)cc1 | > 70.8 | > 70.8 µM | 
CC(=O)C(N=Nc1ccc(S(=O)(=O)Nc2onc(C)c2C)cc1)C(=O)Nc1cc(C)cc(C)c1 (stereo not drawn) | > 200 | 30.2 µM | 
O=C(CC1(O)C(=O)Nc2c(Cl)ccc(Cl)c21)c1ccc(F)cc1 (stereo not drawn) | > 372 | 70.8 µM | 
CC(=O)[C@@]1(O)CC[C@H]2[C@@H]3C[C@H](C)C4=CC(=O)C=C[C@]4(C)[C@@]3(F)[C@@H](O)C[C@@]21C |  |  | inactive
COC(=O)C(=O)C(C(=O)C1=NS(=O)(=O)c2cc(S(N)(=O)=O)c(Cl)cc2N1)c1nc2ccc(C(=O)c3ccccc3)cc2[nH]c1=O (stereo not drawn) | > 195 | 49 µM | 
CCN(CC)CCn1c2ccccc2c(=O)c2c(OC)ccc(OC)c21 |  |  | inactive
CC(=O)OC12c3ccccc3-c3ccccc3C1C1C(=O)N(C)C(=O)C12Cl (stereo not drawn) | > 67.6 | > 67.6 µM | 
O=[As]O |  |  | inactive
O=C1[C@@H](O)[C@@H]2CCCC[C@@]23CCCN13 | > 200 | > 200 µM | 
CC(C)(C)OC(=O)C(C1NC2C(=O)OCC2(CO)S1)N1C(=O)c2ccccc2C1=O (stereo not drawn) | > 200 | > 200 µM | 
COc1ccc(/C(Cl)=C(\C=N/O)c2ccc(OC)c(OC)c2)cc1OC | > 13.8 | > 13.8 µM | 
N#C/C=C/c1cccc(F)c1 | > 49 | > 49 µM | 

From PubChem BioAssay AID179 (DTP/NCI, 2004)
